In ChEMBL document CHEMBL1131346, “A free energy calculation can be used to predict K(+)-binding constants for new macrotetrolide antibiotics” (Bioorg Med Chem Lett, 1998):

experiment: Compound was evaluated for K+ ion binding affinity to macrocycle of macrotetrolides

Point of comparison: `C[C@@H]1C[C@H]2CC[C@H](O2)[C@H](C)C(=O)O[C@@H](C)C[C@@H]2CC[C@@H](O2)[C@@H](C)C(=O)O[C@H](C)C[C@H]2CC[C@@H](O2)[C@H](C)C(=O)O[C@@H](C)C[C@@H]2CC[C@@H](O2)[C@@H](C)C(=O)O1`, Log K 3.88. Against it:
- CC[C@H]1C[C@@H]2CC[C@@H](O2)[C@@H](C)C(=O)O[C@H](C)C[C@H]2CC[C@H](O2)[C@H](C)C(=O)O[C@@H](CC)C[C@@H]2CC[C@@H](O2)[C@@H](C)C(=O)O[C@H](C)C[C@H]2CC[C@H](O2)[C@H](C)C(=O)O1 — higher, 4.73
- CC[C@H]1C[C@@H]2CC[C@@H](O2)[C@@H](C)C(=O)O[C@H](C)C[C@H]2CC[C@H](O2)[C@H](C)C(=O)O[C@@H](C)C[C@@H]2CC[C@@H](O2)[C@@H](C)C(=O)O[C@H](C)C[C@H]2CC[C@H](O2)[C@H](C)C(=O)O1 — higher, 4.4
